Laboratory results from patent US11629171B2, “Beta-hairpin peptidomimetics” (POLYPHOR AG, priority 2017, dated 2023).
≈ marks a conversion by molar mass, not a printed value. Where a SMILES comes first, the peptide text is derived from it. Bridges are numbered along the chain shown (N, C = ends). Roman numbers before positions name the chains, in order. [ ]: non-standard residue; d: D form. Leu(3R-OH) = CC(C)[C@@H](O)[C@H](N)C(=O)O; Tle = CC(C)(C)[C@H](N)C(=O)O; dDab = NCC[C@@H](N)C(=O)O; hSer = N[C@@H](CCO)C(=O)O; Orn = NCCC[C@H](N)C(=O)O; Dab = NCC[C@H](N)C(=O)O; Abu = CC[C@H](N)C(=O)O; Dap = NC[C@H](N)C(=O)O

Tests used:
Assay type in all cases: cell-based
[1] = system: Pseudomonas aeruginosa ATCC 27853; settings: ATCC 27853
Method in brief: (§1)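 CLSI broth microdilution: inoculum ~10^6 CFU/mL in cation-adjusted Mueller-Hinton II broth, with peptide in serial two-fold dilutions plus Polysorbate 80 (0.002% final). MIC (μg/mL) is the lowest concentration without visible growth after 18-20 hours at 35° C.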

[2] = system: Klebsiella pneumoniae 968733; settings: 968733
Method in brief: as §1

[3] = system: Acinetobacter baumannii 872842; settings: 872842
Method in brief: as §1

[4] = system: Acinetobacter baumannii DSM 30008; settings: DSM 30008
Method in brief: as §1

[5] = system: Enterobacter cloacae 848840; settings: 848840
Method in brief: as §1

[6] = system: Klebsiella pneumoniae SSI #3010; settings: SSI #3010
Method in brief: as §1

Escherichia coli 926415 = settings: 926415
Method in brief: as §1

[7] = system: Escherichia coli ATCC 25922; settings: ATCC 25922
Method in brief: as §1

[8] = system: human red blood cells (hRBC); experiment: Hemolysis; settings: red cells of human, 1 h, 200
Method in brief: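 Washed fresh human RBC (20% v/v) incubated with peptide at 200 μg/mL for 1 h at 37° C with shaking. Supernatant OD540 measured after dilution, blank corrected; percent hemolysis = OD540 peptide / OD540 of 2% Triton X-100 lysis × 100, PBS with 10% water as 0%.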

SMILES	MIC [1]	MIC [2]	MIC [3]	MIC [4]	MIC [5]	MIC [6]	MIC (Escherichia coli 926415)	MIC [7]	Hemolysis at 200 μg/mL [8]	Pseudomonas aeruginosa ATCC 27853 MIC [1]	Acinetobacter baumannii DSM 30008 MIC [4]	Klebsiella pneumoniae SSI #3010 MIC [6]	Escherichia coli ATCC 25922 MIC [7]
CC(=O)N[C@H](C(=O)N[C@H]1CCCNC(=O)[C@@H](CCN)NC(=O)[C@H](C(C)(C)C)NC(=O)[C@H](CO)NC(=O)[C@H](Cc2c[nH]c3ccccc23)NC(=O)[C@H](CCO)NC(=O)[C@@H](CCN)NC(=O)[C@H](CCC(=O)N[C@@H](CCN)C(=O)N[C@H](C(=O)N[C@@H](CN)C(=O)N[C@H]2CCNC(=O)[C@H]([C@@H](C)O)NC(=O)[C@H](CCN)NC(=O)[C@H](CCN)NC(=O)[C@H](CC(C)C)NC(=O)[C@@H](CC(C)C)NC(=O)[C@H](CCN)NC2=O)[C@@H](C)O)NC(=O)[C@H](CO)NC(=O)[C@H](Cc2ccc(O)cc2)NC1=O)C(C)C [Ex. 28] (I: Ac-V[Orn]YSE[dDab][hSer]WS[Tle][dDab] / II: [Dab]T[Dap][Dab][Dab][dL]L[Dab][Dab]T; lactam I:2-I:C, II:4-II:C; amide I:5-II:N)	0.25 µg/mL (≈ 0.108 µM)	8 µg/mL (≈ 3.45 µM)	4 µg/mL (≈ 1.72 µM)	0.125 µg/mL (≈ 0.0539 µM)	0.125 µg/mL (≈ 0.0539 µM)	0.125 µg/mL (≈ 0.0539 µM)	8 µg/mL (≈ 3.45 µM)	0.125 µg/mL (≈ 0.0539 µM)	<1%	–	–	–	–
CC(=O)N[C@@H](CCN)C(=O)N[C@H](C(=O)N[C@H](C(=O)N[C@@H](Cc1ccc(O)cc1)C(=O)N[C@H]1CSSC[C@@H](C(=O)N[C@H](C(=O)N[C@@H](C)C(=O)N[C@H](C(N)=O)C(C)C)C(C)(C)C)NC(=O)[C@H](Cc2c[nH]c3ccccc23)NC(=O)[C@H](CCN)NC(=O)[C@@H](CCN)NC(=O)[C@H](CCC(=O)N[C@@H](CCN)C(=O)N[C@H](C(=O)N[C@@H](CN)C(=O)N[C@H]2CCNC(=O)[C@H]([C@@H](C)O)NC(=O)[C@H](CCN)NC(=O)[C@H](CCN)NC(=O)[C@H](CC(C)C)NC(=O)[C@@H](CC(C)C)NC(=O)[C@H](CCN)NC2=O)[C@@H](C)O)NC1=O)[C@@H](C)O)[C@H](O)C(C)C [Ex. 240] (I: Ac-[Dab][Leu(3R-OH)]TYCE[dDab][Dab]WC[Tle]AV-NH2 / II: [Dab]T[Dap][Dab][Dab][dL]L[Dab][Dab]T; disulfide I:5-I:10; amide I:6-II:N; lactam II:4-II:C)	0.25 µg/mL (≈ 0.0979 µM)	0.5 µg/mL (≈ 0.196 µM)	0.0625 µg/mL (≈ 0.0245 µM)	0.03125 µg/mL (≈ 0.0122 µM)	0.125 µg/mL (≈ 0.049 µM)	0.125 µg/mL (≈ 0.049 µM)	0.0625 µg/mL (≈ 0.0245 µM)	0.0625 µg/mL (≈ 0.0245 µM)	1%	–	–	–	–
CC(=O)N[C@H](C(=O)N[C@H]1CSSC[C@@H](C(=O)N[C@@H](CO)C(N)=O)NC(=O)[C@H](C(C)C)NC(=O)[C@H](CC(=O)O)NC(=O)[C@H](Cc2c[nH]c3ccccc23)NC(=O)[C@H](CO)NC(=O)[C@@H](CCN)NC(=O)[C@H](CCC(=O)N[C@@H](CCN)C(=O)N[C@H](C(=O)N[C@@H](CN)C(=O)N[C@H]2CCNC(=O)[C@H]([C@@H](C)O)NC(=O)[C@H](CCN)NC(=O)[C@H](CCN)NC(=O)[C@H](CC(C)C)NC(=O)[C@@H](CC(C)C)NC(=O)[C@H](CCN)NC2=O)[C@@H](C)O)NC(=O)[C@H](CCCCN)NC(=O)[C@H](Cc2ccc(O)cc2)NC1=O)C(C)C [Ex. 152] (I: Ac-VCYKE[dDab]SWDVCS-NH2 / II: [Dab]T[Dap][Dab][Dab][dL]L[Dab][Dab]T; disulfide I:2-I:11; amide I:5-II:N; lactam II:4-II:C)	0.25 µg/mL (≈ 0.102 µM)	8 µg/mL (≈ 3.26 µM)	1 µg/mL (≈ 0.407 µM)	0.125 µg/mL (≈ 0.0509 µM)	0.5 µg/mL (≈ 0.204 µM)	0.25 µg/mL (≈ 0.102 µM)	2 µg/mL (≈ 0.815 µM)	0.125 µg/mL (≈ 0.0509 µM)	<1%	–	–	–	–
CC(=O)N[C@H](C(=O)N[C@H]1CCNC(=O)[C@@H]([C@H](C)O)NC(=O)[C@H](C(C)(C)C)NC(=O)[C@H](CO)NC(=O)[C@H](Cc2c[nH]c3ccccc23)NC(=O)[C@H](CCO)NC(=O)[C@@H](CCN)NC(=O)[C@H](CCC(=O)N[C@@H](CCN)C(=O)N[C@H](C(=O)N[C@@H](CN)C(=O)N[C@H]2CCNC(=O)[C@H]([C@@H](C)O)NC(=O)[C@H](CCN)NC(=O)[C@H](CCN)NC(=O)[C@H](CC(C)C)NC(=O)[C@@H](CC(C)C)NC(=O)[C@H](CCN)NC2=O)[C@@H](C)O)NC(=O)[C@H](CN)NC(=O)[C@H](Cc2ccc(O)cc2)NC1=O)C(C)C [Ex. 35] (I: Ac-V[Dab]Y[Dap]E[dDab][hSer]WS[Tle][dT] / II: [Dab]T[Dap][Dab][Dab][dL]L[Dab][Dab]T; lactam I:2-I:C, II:4-II:C; amide I:5-II:N)	0.25 µg/mL (≈ 0.108 µM)	0.25 µg/mL (≈ 0.108 µM)	0.25 µg/mL (≈ 0.108 µM)	0.125 µg/mL (≈ 0.0542 µM)	0.25 µg/mL (≈ 0.108 µM)	0.25 µg/mL (≈ 0.108 µM)	1 µg/mL (≈ 0.434 µM)	0.125 µg/mL (≈ 0.0542 µM)	<1%	–	–	–	–
CC(=O)N[C@H](C(=O)N[C@H]1CCCNC(=O)[C@@H](CCC(N)=O)NC(=O)[C@H](C(C)(C)C)NC(=O)[C@H](CO)NC(=O)[C@H](Cc2c[nH]c3ccccc23)NC(=O)[C@H](CCO)NC(=O)[C@@H](CCN)NC(=O)[C@H](CCC(=O)N[C@@H](CCN)C(=O)N[C@H](C(=O)N[C@@H](CN)C(=O)N[C@H]2CCNC(=O)[C@H]([C@@H](C)O)NC(=O)[C@H](CCN)NC(=O)[C@H](CCN)NC(=O)[C@H](CC(C)C)NC(=O)[C@@H](CC(C)C)NC(=O)[C@H](CCN)NC2=O)[C@@H](C)O)NC(=O)[C@H](CO)NC(=O)[C@H](Cc2ccc(O)cc2)NC1=O)C(C)C [Ex. 20] (I: Ac-V[Orn]YSE[dDab][hSer]WS[Tle][dQ] / II: [Dab]T[Dap][Dab][Dab][dL]L[Dab][Dab]T; lactam I:2-I:C, II:4-II:C; amide I:5-II:N)	0.25 µg/mL (≈ 0.106 µM)	2 µg/mL (≈ 0.852 µM)	0.5 µg/mL (≈ 0.213 µM)	0.125 µg/mL (≈ 0.0532 µM)	0.25 µg/mL (≈ 0.106 µM)	0.125 µg/mL (≈ 0.0532 µM)	1 µg/mL (≈ 0.426 µM)	0.125 µg/mL (≈ 0.0532 µM)	<1%	–	–	–	–
CC(=O)N[C@H](C(=O)N[C@H]1CSSC[C@@H](C(=O)N[C@@H](CO)C(=O)N[C@@H](CC(N)=O)C(N)=O)NC(=O)[C@H](C(C)C)NC(=O)[C@H](CO)NC(=O)[C@H](Cc2c[nH]c3ccccc23)NC(=O)[C@H](CCN)NC(=O)[C@@H](CCN)NC(=O)[C@H](CCC(=O)N[C@@H](CCN)C(=O)N[C@H](C(=O)N[C@@H](CN)C(=O)N[C@H]2CCNC(=O)[C@H]([C@@H](C)O)NC(=O)[C@H](CCN)NC(=O)[C@H](CCN)NC(=O)[C@H](CC(C)C)NC(=O)[C@@H](CC(C)C)NC(=O)[C@H](CCN)NC2=O)[C@@H](C)O)NC(=O)[C@H](CO)NC(=O)[C@H](Cc2ccc(O)cc2)NC1=O)C(C)C [Ex. 373] (I: Ac-VCYSE[dDab][Dab]WSVCSN-NH2 / II: [Dab]T[Dap][Dab][Dab][dL]L[Dab][Dab]T; disulfide I:2-I:11; amide I:5-II:N; lactam II:4-II:C)	–	0.125 µg/mL (≈ 0.0497 µM)	0.0625 µg/mL (≈ 0.0249 µM)	–	0.25 µg/mL (≈ 0.0995 µM)	–	0.125 µg/mL (≈ 0.0497 µM)	–	<1%	0.0625 µg/mL	0.03125 µg/mL	0.0625 µg/mL	0.0625 µg/mL
CC[C@@H]1NC(=O)[C@@H](CC(C)C)NC(=O)[C@H](CCN)NC(=O)[C@@H](NC(=O)[C@H](CN)NC(=O)[C@@H](NC(=O)[C@H](CCN)NC(=O)CC[C@@H]2NC(=O)[C@H](CCN)NC(=O)[C@H](Cc3ccc(O)cc3)NC(=O)[C@@H](NC(=O)[C@@H](NC(C)=O)C(C)C)CSSC[C@@H](C(=O)N[C@H](C(N)=O)[C@@H](C)O)NC(=O)[C@H]([C@@H](C)CC)NC(=O)[C@H](CO)NC(=O)[C@H](Cc3c[nH]c4ccccc34)NC(=O)[C@H](CO)NC(=O)[C@@H](CCN)NC2=O)[C@@H](C)O)CCNC(=O)[C@H]([C@@H](C)O)NC(=O)[C@H](CCN)NC(=O)[C@H](CCN)NC1=O [Ex. 143] (I: Ac-VCY[Dab]E[dDab]SWSICT-NH2 / II: [Dab]T[Dap][Dab][Dab][dL][Abu][Dab][Dab]T; disulfide I:2-I:11; amide I:5-II:N; lactam II:4-II:C)	0.125 µg/mL (≈ 0.0521 µM)	0.0625 µg/mL (≈ 0.0261 µM)	0.03125 µg/mL (≈ 0.013 µM)	0.0625 µg/mL (≈ 0.0261 µM)	0.0625 µg/mL (≈ 0.0261 µM)	0.0625 µg/mL (≈ 0.0261 µM)	0.125 µg/mL (≈ 0.0521 µM)	0.03125 µg/mL (≈ 0.013 µM)	2%	–	–	–	–
